Experimental data published in article PMC5850045 (ERJ Open Research, 2018).
Like-named read-outs stand apart in the source and are kept apart here.

Key:
5-HT2C receptor [1] = molecular target: T1, 5-HT2C receptor (Homo sapiens, UniProt P28335); assay: Primary radioligand binding screen; conditions: 10 µM, n = 4
T1 sequence (P28335 33-458): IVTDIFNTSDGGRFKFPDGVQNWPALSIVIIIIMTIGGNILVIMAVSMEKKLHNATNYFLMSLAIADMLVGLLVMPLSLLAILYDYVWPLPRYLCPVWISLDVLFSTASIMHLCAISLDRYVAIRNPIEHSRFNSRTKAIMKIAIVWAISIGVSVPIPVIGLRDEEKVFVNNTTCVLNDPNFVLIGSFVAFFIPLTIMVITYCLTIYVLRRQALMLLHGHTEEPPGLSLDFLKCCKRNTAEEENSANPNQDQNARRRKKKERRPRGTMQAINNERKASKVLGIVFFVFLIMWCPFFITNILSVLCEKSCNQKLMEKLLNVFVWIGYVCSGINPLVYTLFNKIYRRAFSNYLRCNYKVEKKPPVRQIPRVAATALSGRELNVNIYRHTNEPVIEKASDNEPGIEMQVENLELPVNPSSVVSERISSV

α1A-adrenergic receptor [2] = molecular target: T2, α1A-adrenergic receptor (Homo sapiens, UniProt P35348); assay: Primary radioligand binding screen; conditions: 10 µM, n = 4
T2 sequence (P35348 1-466): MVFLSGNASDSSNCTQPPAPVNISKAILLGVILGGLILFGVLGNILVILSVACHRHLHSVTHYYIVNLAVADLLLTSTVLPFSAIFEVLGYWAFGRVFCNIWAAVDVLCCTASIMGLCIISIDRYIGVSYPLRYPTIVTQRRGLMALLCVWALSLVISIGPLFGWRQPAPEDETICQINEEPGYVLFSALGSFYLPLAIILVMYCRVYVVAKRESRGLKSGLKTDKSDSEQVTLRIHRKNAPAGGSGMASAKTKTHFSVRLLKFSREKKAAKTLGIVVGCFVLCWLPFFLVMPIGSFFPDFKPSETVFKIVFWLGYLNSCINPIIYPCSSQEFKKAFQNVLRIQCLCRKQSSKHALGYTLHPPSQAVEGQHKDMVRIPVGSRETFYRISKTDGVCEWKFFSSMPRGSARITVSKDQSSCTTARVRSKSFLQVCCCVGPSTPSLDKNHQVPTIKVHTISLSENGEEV

rat colon = assay: Ex vivo rat colon force contraction experiment; conditions: for contractile response in the colon: colon pre-treated with β3 receptor selective antagonist SR59230A; for effects on colonic contractions: ex vivo rat colon preparation
serotonin transporter [3] = molecular target: T3, serotonin transporter (Homo sapiens, UniProt P31645); assay: Primary radioligand binding screen; conditions: 10 µM, n = 4
T3 sequence (P31645 whole entry): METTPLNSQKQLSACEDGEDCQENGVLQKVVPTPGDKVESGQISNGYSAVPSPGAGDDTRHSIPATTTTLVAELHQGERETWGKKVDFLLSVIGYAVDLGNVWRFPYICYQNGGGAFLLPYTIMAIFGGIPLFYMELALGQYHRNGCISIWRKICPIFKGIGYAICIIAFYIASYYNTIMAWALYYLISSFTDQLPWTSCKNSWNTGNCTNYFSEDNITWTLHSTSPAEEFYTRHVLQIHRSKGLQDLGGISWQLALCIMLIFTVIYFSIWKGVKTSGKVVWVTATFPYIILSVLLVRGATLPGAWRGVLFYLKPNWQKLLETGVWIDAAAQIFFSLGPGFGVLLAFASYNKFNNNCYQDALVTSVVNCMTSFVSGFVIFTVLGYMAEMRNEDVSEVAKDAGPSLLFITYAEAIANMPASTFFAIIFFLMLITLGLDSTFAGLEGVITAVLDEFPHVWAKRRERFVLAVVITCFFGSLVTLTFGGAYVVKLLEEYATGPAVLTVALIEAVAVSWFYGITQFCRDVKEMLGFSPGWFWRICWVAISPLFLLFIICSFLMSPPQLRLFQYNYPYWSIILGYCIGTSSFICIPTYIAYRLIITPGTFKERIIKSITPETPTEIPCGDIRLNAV

5-HT2C receptor [4] = molecular target: T1, 5-HT2C receptor; assay: Secondary radioligand binding assay
dopamine transporter = dopamine transporter (Homo sapiens, UniProt Q01959); assay: Primary radioligand binding screen; conditions: 10 µM, n = 4
Chain of dopamine transporter (Q01959 whole entry): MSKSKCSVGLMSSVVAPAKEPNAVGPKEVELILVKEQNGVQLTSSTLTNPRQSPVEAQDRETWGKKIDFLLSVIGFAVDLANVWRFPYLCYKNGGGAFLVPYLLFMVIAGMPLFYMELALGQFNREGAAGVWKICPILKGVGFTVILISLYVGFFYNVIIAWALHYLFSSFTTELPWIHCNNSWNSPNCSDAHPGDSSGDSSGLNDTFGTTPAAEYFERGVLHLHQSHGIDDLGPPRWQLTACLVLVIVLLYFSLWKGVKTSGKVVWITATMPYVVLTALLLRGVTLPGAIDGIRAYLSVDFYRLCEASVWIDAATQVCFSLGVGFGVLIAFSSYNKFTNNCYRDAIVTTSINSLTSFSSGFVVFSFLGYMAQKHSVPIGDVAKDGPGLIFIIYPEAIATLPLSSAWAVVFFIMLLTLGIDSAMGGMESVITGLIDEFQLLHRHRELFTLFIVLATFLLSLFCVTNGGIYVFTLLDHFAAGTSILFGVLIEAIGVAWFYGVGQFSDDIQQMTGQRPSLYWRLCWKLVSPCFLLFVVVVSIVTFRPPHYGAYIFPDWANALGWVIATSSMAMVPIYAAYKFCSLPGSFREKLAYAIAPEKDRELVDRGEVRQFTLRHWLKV

serotonin transporter [5] = molecular target: T3, serotonin transporter; assay: Secondary radioligand binding assay; conditions: low-affinity binding
δ-opioid receptor [6] = molecular target: T4, δ-opioid receptor (Homo sapiens, UniProt P41143); assay: Secondary radioligand binding assay
T4 sequence (P41143 whole entry): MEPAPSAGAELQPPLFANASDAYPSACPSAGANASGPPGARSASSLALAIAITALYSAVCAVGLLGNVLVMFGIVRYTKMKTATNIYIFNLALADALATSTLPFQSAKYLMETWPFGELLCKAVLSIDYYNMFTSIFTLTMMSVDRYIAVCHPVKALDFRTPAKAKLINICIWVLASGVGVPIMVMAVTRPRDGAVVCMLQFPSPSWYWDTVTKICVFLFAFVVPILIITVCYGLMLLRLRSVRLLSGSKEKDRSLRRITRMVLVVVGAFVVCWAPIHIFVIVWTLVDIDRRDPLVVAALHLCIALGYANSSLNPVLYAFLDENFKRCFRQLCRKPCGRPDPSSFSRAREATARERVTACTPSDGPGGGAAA

β3-adrenergic receptor [7] = molecular target: T5, β3-adrenergic receptor (Homo sapiens, UniProt P13945); assay: Secondary radioligand binding assay
T5 sequence (P13945 whole entry, species assumed): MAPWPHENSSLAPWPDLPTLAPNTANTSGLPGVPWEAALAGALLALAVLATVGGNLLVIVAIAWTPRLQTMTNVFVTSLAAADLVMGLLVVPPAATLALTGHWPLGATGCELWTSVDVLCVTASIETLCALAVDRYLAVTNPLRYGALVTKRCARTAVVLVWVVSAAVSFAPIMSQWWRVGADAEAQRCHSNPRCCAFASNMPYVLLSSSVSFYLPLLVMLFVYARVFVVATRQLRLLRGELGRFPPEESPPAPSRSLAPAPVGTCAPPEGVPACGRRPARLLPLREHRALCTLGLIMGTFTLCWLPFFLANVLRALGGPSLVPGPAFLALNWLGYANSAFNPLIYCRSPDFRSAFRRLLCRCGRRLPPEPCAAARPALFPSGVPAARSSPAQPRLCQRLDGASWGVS

β3-adrenergic receptor [8] = molecular target: T5, β3-adrenergic receptor; assay: Primary radioligand binding screen; conditions: 10 µM, n = 4
α1A-adrenergic receptor [9] = molecular target: T2, α1A-adrenergic receptor; assay: Secondary radioligand binding assay
δ-opioid receptor [10] = molecular target: T4, δ-opioid receptor; assay: Primary radioligand binding screen; conditions: 10 µM, n = 4
α1D-adrenergic receptor = molecular target: T6, α1D-adrenergic receptor (Homo sapiens, UniProt P25100); assay: Secondary radioligand binding assay
T6 sequence (P25100 1-572): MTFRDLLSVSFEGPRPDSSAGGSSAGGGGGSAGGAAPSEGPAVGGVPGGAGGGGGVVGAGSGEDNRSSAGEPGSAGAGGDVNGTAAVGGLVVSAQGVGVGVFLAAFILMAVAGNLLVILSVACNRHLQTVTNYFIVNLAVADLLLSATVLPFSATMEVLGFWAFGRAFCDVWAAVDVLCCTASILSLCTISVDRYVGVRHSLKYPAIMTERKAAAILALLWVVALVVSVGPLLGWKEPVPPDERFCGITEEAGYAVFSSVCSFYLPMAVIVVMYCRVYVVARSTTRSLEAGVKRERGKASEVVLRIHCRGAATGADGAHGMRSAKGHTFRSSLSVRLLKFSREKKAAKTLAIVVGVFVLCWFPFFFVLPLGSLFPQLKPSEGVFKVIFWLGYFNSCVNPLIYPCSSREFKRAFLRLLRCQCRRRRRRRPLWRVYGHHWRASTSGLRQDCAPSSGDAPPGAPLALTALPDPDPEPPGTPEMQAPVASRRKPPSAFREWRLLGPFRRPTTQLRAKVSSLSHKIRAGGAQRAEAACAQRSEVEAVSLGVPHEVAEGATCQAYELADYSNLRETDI

α1B-adrenergic receptor = molecular target: T7, α1B-adrenergic receptor (Homo sapiens, UniProt P35368); assay: Secondary radioligand binding assay
T7 sequence (P35368 1-520): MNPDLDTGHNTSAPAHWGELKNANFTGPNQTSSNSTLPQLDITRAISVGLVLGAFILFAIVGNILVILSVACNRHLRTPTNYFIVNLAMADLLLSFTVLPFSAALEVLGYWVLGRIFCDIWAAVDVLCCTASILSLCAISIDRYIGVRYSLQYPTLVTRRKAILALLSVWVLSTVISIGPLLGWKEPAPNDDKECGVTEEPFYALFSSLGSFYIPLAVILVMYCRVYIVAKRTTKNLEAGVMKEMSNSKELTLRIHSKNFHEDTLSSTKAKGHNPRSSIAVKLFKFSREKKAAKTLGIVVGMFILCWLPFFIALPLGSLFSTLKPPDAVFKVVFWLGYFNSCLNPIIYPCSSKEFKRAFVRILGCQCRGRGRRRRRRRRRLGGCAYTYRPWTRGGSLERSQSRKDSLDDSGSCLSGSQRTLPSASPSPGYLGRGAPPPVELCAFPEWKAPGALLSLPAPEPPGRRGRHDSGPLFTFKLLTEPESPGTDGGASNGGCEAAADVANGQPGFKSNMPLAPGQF

histamine H1 receptor = histamine H1 receptor (Homo sapiens, UniProt P35367); assay: Primary radioligand binding screen; conditions: 10 µM, n = 4
Chain of histamine H1 receptor (P35367 whole entry, species assumed): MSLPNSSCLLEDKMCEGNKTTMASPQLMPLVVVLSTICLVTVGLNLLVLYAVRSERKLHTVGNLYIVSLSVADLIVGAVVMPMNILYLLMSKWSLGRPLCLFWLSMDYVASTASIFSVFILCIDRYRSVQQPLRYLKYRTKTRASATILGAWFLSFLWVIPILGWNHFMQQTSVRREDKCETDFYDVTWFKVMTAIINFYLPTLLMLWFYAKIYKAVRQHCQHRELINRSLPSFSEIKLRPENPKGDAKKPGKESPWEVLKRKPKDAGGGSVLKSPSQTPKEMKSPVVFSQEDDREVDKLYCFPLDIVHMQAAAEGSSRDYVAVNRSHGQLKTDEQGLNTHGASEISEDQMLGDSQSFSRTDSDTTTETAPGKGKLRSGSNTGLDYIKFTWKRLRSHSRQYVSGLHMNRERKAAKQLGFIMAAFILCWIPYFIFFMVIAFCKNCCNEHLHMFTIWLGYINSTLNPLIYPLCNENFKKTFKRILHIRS

muscarinic M3 receptor = muscarinic M3 receptor (Homo sapiens, UniProt P20309); type: binding
Chain of muscarinic M3 receptor (P20309 whole entry): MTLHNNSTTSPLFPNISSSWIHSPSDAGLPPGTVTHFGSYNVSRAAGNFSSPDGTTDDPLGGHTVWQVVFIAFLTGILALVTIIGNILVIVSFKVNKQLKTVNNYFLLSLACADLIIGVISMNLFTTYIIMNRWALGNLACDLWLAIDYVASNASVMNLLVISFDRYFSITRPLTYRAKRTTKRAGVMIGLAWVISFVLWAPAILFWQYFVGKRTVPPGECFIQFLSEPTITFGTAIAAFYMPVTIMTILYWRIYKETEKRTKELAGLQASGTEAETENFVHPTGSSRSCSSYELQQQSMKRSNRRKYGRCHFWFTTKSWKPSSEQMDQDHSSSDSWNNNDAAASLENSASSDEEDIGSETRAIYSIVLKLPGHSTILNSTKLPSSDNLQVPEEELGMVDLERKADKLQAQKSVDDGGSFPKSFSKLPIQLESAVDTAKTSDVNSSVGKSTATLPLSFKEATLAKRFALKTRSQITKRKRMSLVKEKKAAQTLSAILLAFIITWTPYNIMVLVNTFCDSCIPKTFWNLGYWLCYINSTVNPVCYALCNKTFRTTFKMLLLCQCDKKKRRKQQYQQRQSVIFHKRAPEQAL

Structure (SMILES) | % displacement (5-HT2C receptor [1]) [%] | % displacement (α1A-adrenergic receptor [2]) [%] | contractile response in the colon (rat colon) | effects on colonic contractions (rat colon) | % displacement (serotonin transporter [3]) [%] | Ki (α1D-adrenergic receptor) [µM] | % displacement (histamine H1 receptor) [%] | Ki (serotonin transporter [5]) [µM] | Ki (α1A-adrenergic receptor [9]; low-affinity binding) [µM] | further results
CC(C)(C)c1cc(C(C)(C)C)c(NC(=O)c2c[nH]c3ccccc3c2=O)cc1O [ivacaftor] | 84.8 | 58.3 | significant contractile response | no significant effects | 61.1 |  |  |  |  | Ki (5-HT2C receptor [4]): 0.866 µM; % displacement (dopamine transporter): 55.2%; Ki (serotonin transporter [5]; Ki): > 10 µM; Ki (δ-opioid receptor [6]): 2.59 µM; Ki (β3-adrenergic receptor [7]): 1.93 µM; % displacement (β3-adrenergic receptor [8]): 75.9%; Ki (α1A-adrenergic receptor [9]): > 10 µM; % displacement (δ-opioid receptor [10]): 50.8%
Cc1ccc(NC(=O)C2(c3ccc4c(c3)OC(F)(F)O4)CC2)nc1-c1cccc(C(=O)O)c1 [lumacaftor] |  |  |  |  |  | 4.84 | 71.2 |  |  | Ki (α1B-adrenergic receptor): > 10 µM
CC(C)(CO)c1cc2cc(NC(=O)C3(c4ccc5c(c4)OC(F)(F)O5)CC3)c(F)cc2n1C[C@@H](O)CO [tezacaftor] |  |  |  |  |  | 5.45 | 53.3 |  |  | 
CC(C)(C)c1cc(C(C)(C)CO)c(O)cc1NC(=O)c1c[nH]c2ccccc2c1=O [iva-M1, hydroxymethylivacaftor] | 78.2 | 79.9 |  |  | 56.7 |  |  | > 10 | > 10 | Ki (muscarinic M3 receptor): 1.83 µM; pKi (muscarinic M3 receptor): 5.70±0.10
CC(C)(C)c1cc(C(C)(C)C(=O)O)c(O)cc1NC(=O)c1c[nH]c2ccccc2c1=O [iva-M6, ivacaftorcarboxylate] |  | 92.3 | significant contractile response | no significant effects | 50.9 |  |  | > 10 | > 10 | 
